{"source": "patent US9186342B2", "about": "“Combination of an NSAID and an amino acid” (LABORATORIOS SENOSIAIN S.A. DE C.V., priority 2010, dated 2015)", "key": {"[1]": {"conditions": "cited from earlier work"}, "[2]": {"test_system": "pyresis induced by LPS from E. coli in rats", "test": "Anti-pyretic effect, pyresis model induced by LPS from E. coli", "format": "in vivo, rat", "conditions": "15 mg/Kg, from the first 60 minutes", "method": "After the assessment of the anti-nociceptive and anti-inflammatory effects, the anti-pyretic effect was assessed for increasing doses of the combination IBU:L-ARG in a ratio IBU/L-ARG=3.26, in comparison with the administration of an agent that is well known as capable of control fever, such as acetaminophen (15 mg/Kg) (see FIG. 5)."}, "[3]": {"test_system": "inflammation induced with carrageenan in rats", "test": "Anti-inflammatory effect, inflammation model by carrageenan", "format": "in vivo, rat", "conditions": "10 mg/Kg, each 8 hours, from the third hour", "method": "From the results of the previous study, and following a model where inflammation is induced with carrageenan administration for generating a bruise, we determined the anti-inflammatory effect of the L-ARG-IBU combination, in comparison with the administration of a treatment of known effects (positive control: diclofenac 10 mg/Kg), and of a control group, administered each 8 hours for a period of 48 hours. This model presented a maximum inflammation level of towards 6-8 hours, after which inflammation starts to decrease gradually."}, "[4]": {"conditions": "in vivo; cited from earlier work"}}, "data": [{"compound": "CC(C)Cc1ccc(C(C)C(=O)O)cc1", "note": "(stereo not shown) [Ibuprofen]", "values": [{"measurement": "solubility in water", "setting": "[1]", "result": "relatively insoluble in water"}]}, {"compound": "CC(=O)Nc1ccc(O)cc1", "note": "[acetaminophen]", "values": [{"measurement": "temperature after drug administration", "setting": "[2]", "result": "temperature returned to basal levels"}]}, {"compound": "O=C(O)Cc1ccccc1Nc1c(Cl)cccc1Cl", "note": "[diclofenac]", "values": [{"measurement": "development of edema", "setting": "[3]", "result": "reduced the development of edema"}]}, {"compound": "ibuprofen arginate", "values": [{"measurement": "onset of the analgesic action compared to ibuprofen alone", "setting": "[4]", "result": "fast onset of the analgesic action"}]}]}
